The target of series [1] is T1, MPO (Homo sapiens, UniProt P05164). In words: Oxidation of β2-agonists by MPO/H2O2, spectrophotometric ΔA315. The note with it: 100 μM AscH−, 200 mU/mL MPO, 50 μM H2O2. Further details: Myeloperoxidase (MPO) from human leucocytes (lyophilized powder); purchased Axxora, LLC (San Diego, Calif.); host or cells: human leucocytes (natural source). The class given is biochemical. The method, then:
Spectrophotometric Measurements. Spectra are measured using an Agilent diode array spectrophotometer model 8453 (Agilent Technologies, Inc., Santa Clara, Calif.). Oxidation of β2-agonists is studied by measuring absorption spectra at designated time points following reaction starts. Samples are prepared in 50 mM acetate buffer (pH 5.0), 50 and 100 mM phosphate buffers (pH 7.0 and 8.0) and 100 mM Tris/HCl (pH 9.19). All buffers contain DTPA (100 and 200 μM) and measurements are performed at an ambient temperature of 20° C. The reaction is started by the addition of a small aliquot of H2O2 (2, 5 or 10 μL), or glucose oxidase (1 μL), if glucose/glucose oxidase was used to generate H2O2, to a sample containing a studied compound, peroxidase and, if required, an inhibiting co-factor. Time course measurements are carried out following changes in absorbance at 315 nm in 15 second intervals versus absorbance at 800 nm, where none of the compounds absorb. The 315 nm wavelength is chosen because β2-agonists' oxidation products absorb intensely near 315 nm, and because it is close to the absorption maximum of tyrosine dimers.
The concentration of AscH^− in airway fluid was estimated to be near 100 μM (Id.), so we use concentrations within this physiological range. […] AscH^− affects oxidation of salbutamol and fenoterol similarly, causing delay in the net oxidation of both drugs. A315 increases after a lag period, the duration of which depends on AscH^− concentration. Net oxidation of the drugs occurs only when AscH^− is consumed. […] This is understandable given that the concentration of H2O2 was only 50 μM and the peroxide was used to oxidize both the drugs and AscH^−. […] The proposed mechanisms of inhibition are reactions A and B, shown below, which reveal that recovery of the drug occurs at the expense of AscH^−, which is oxidized to the ascorbate radical (A^•−).
[…]. The extent of oxidation is expressed as ΔA315±SE versus control (in %) during 22 minutes of reaction at 20° C. Values are the mean of at least duplicate determinations.

In series [2] the target is T2, LPO (Bos taurus, UniProt P80025).
T2 construct: Lactoperoxidase (LPO) from bovine milk (EC 1.11.1.7); purchased Sigma-Aldrich Co. (St. Louis, Mo.); host or cells: bovine milk (natural source)
Description: Nitration of salbutamol by LPO/H2O2/NO2−, A410. Format: biochemical, bovine. The note with it: 100 μM salbutamol, 67 nM LPO, 4 mM H2O2, 3.5 mM NaNO2. The method, then:
Spectrophotometric Measurements. Spectra are measured using an Agilent diode array spectrophotometer model 8453 (Agilent Technologies, Inc., Santa Clara, Calif.). Nitration of salbutamol is studied by measuring absorption spectra at designated time points following the start of the reaction. Samples are prepared in 100 mM phosphate buffers (pH 7.0). All buffers contained DTPA (100 μM) or are pretreated with Chelex-100 before use, and measurements are performed at ambient temperature of 20° C. Typically, the reaction is started by the addition of a small aliquot of H2O2 or the desired peroxidase. Time course measurements are carried out following changes in absorbance at 410 nm in 30 second intervals versus absorbance at 800 nm, where none of the compounds absorb.
Ascorbate (AscH^−) is an effective natural antioxidant protecting airways from oxidative injury. Cross et al., (1994) Environ. Health Perspect. 102 (suppl. 10):185-191. Its concentration in the respiratory tract lining fluid is estimated to be near 100 μM (Id.). We examine the effect of AscH^− on nitration of 100 μM salbutamol by 67 nM LPO, 4 mM H2O2, and 3.5 mM of NaNO2 by measuring absorption at 410 nm. […] The duration of the lag period depends on AscH^− concentration. […] See, e.g., Reszka et al. (1999) Free Radic. Biol. & Med. 26:669-678.
As noted earlier, methimazole is an antithyroid drug, an effective inhibitor of LPO activity. 100 μM of salbutamol is reacted with 73 nM LPO, 3.5 mM NaNO2, and 4 mM H2O2 at pH buffer 7.0 in the presence of 0, 27, 55, and 109 μM methimazole (shown in FIG. 9, section A, traces a-d, respectively). Traces c and d also indicate by arrow when additional LPO is added to the system. […] In contrast to effects exerted by AscH^− or SCN^−, methimazole-dependent inhibition is permanent and is probably due to inactivation of the enzyme, since a second dose of LPO reactivates the process (FIG. 9, section A, trace c).
Dapsone, an anti-inflammatory and anti-leprotic agent, is a potent inhibitor of LPO and MPO. See, e.g., Kettle et al. (1991) Biochem. Pharmacol. 41(10):1485-1492; Bozeman et al. (1992) Biochem. Pharmacol. 44(2):553-563. 97 μM of salbutamol is reacted with 65 nM LPO, 3.4 mM NaNO2, and 4 mM H2O2 at pH buffer 7.0 in the presence of 0, 2.5, 5, 10, 50, and 100 μM dapsone (shown in FIG. 10, traces a-f, respectively). The arrows in traces d and e of FIG. 10 indicate where additional LPO is added to the system. […] Dapsone at 50 μM inhibited nitration by approximately 86%. Given the high concentrations of NaNO2 and H2O2 used in this system, dapsone appears to be a potent blocker of nitration.
The extent of nitration is expressed as a change in ΔA410 versus control (dapsone omitted) taken as 100% after 10, 30, and 60 minute reactions for LPO, MPO, and EPO nitrating systems, respectively. Results equal the means±SE of at least two measurements. In the LPO system, 100 μM of salbutamol, 3.4 mM of NaNO2, 4 mM of H2O2, and 65 nM of LPO is used. In the MPO system, 50 μM of salbutamol, 5.0 mM of NaNO2, 5 mM of H2O2, and 0.2 U/mL of MPO is used. In the EPO system, 50 μM of salbutamol, 5 mM of NaNO2, 2 mM of H2O2, and 0.075 U/mL of EPO is used. All reactions were carried out in pH 7.0 phosphate buffer containing DMSO (5% v/v). The term “nitrophenols” includes nitrosalbutamol (N-Sal) and salbutamol-derived nitrophenol (N—ArOH).

For series [3] the following is noted: human. The method, then: Exhaled breath condensate (“EBC”) samples. EBC samples are collected during 10 min of quiet breathing through a single-use disposable RTube collector (Respiratory Research, Inc., Charlottesville, Va., USA) while subjects are wearing a nose clip. The aluminum sleeve of the device is cooled to an initial temperature of −20° C. prior to collection. After collection, a plunger is used to pool the condensed material within the tube into a single sample (about 1.0 ml). Samples are stored in the reaction tube at a temperature of −80° C. until thawed and processed for analysis.
Mass Spectrometry. The experiment is performed on a Thermo Fisher Scientific LTQ-FT, a hybrid instrument consisting of a linear ion trap and a Fourier transform ion cyclotron resonance mass spectrometer. Liquid chromatography separation of the sample components utilizes a Waters XBridge™ C18 3.5 μm 2.1×100 mm column, Finnigan Surveyor MS pump, and Finnigan Micro AS autosampler. A 200 μL/min gradient elution of water and acetonitrile, both containing 0.1% formic acid, occurs as follows: 5% to 32% acetonitrile in first eight minutes followed by a rapid rise to 95% acetonitrile within the next minute, held at 95% for an additional seven minutes. […]

In series [4] the target is T1, MPO. Description: EPR of ascorbate radicals during oxidation of β2-agonists by MPO/H2O2. Also noted: Myeloperoxidase (MPO) from human leucocytes (lyophilized powder); purchased Axxora, LLC (San Diego, Calif.); host or cells: human leucocytes (natural source). The following applies: 100 μM ascorbate, MPO 0.01 U/250 μL, H2O2 39 μM, pH 7.0. The class given is biochemical. The protocol:
(§1) The sample is transferred to a flat aqueous EPR cell and recording is started one minute after initiation of the reaction. The spectra of DMPO adducts are recorded using the same parameters as above but the sweeping rate is 8 mT/41.92 s. The EPR spectra of ascorbate radicals are obtained using microwave power 5 mW, modulation amplitude 0.05 mT, scan rate 4 mT/41.92 s. EPR spectra shown are an average of 5 scans and represent results of a typical experiment.
Formation of Asc^•− during oxidation of β2-agonists by MPO/H2O2 in the presence of 100 μM AscH^− is investigated by EPR. […] Spectrum A is the EPR of 100 μM ascorbate without additives. Sprectrun B is the EPR spectrum of 100 μM ascorbate in the presence of MPO (0.01 U/250 μL) and H2O2 (39 μM). Spectra C and D are the EPR spectra of 100 μM ascorbate in the presence of MPO (0.01 U/250 μ), H2O2 (39 μM), and 40 μM and 100 μM of salbutamol, respectily. Spectrum E is the EPR spectrum of 100 μM ascorbate in the presence of MPO (0.01 U/250 μL), H2O2 (39 μM) and 20 μM of fenoterol. All reactions occur in pH 7.0 buffer (50 mM) containing DTPA (0.2 mM).

Series [5] relates to murine airway smooth muscle cells. In words: cAMP production in airway smooth muscle cells, fluorescent detection assay. The class given is cell-based. The note with it: 15 minutes, read-out: EC50, stimulation of cAMP synthesis. For orientation: cAMP levels reflect the balance of adenylyl cyclase and phosphodiesterase activity.
Description: For these studies, cells are grown to near-confluence in 96-well plates. After washing with PBS, cells were treated for 15 minutes with either PBS vehicle or the indicated concentration of isoproterenol. The reaction is then halted using the supplied stop buffer, after which the resultant sample is processed for fluorescent detection per the manufacturer's instructions. The cAMP content for each sample is determined by extrapolating values to a standard curve prepared with known concentrations of cAMP.
The target of series [6] is T1, MPO. Description: EPR spin trapping of GS radicals (DMPO/SG adduct) with MPO/H2O2. The class given is biochemical. Further details: Myeloperoxidase (MPO) from human leucocytes (lyophilized powder); purchased Axxora, LLC (San Diego, Calif.). The following applies: 2 μM fenoterol, 4 mM GSH, 18 mM DMPO, pH 7.0. The protocol: as §1
Spectrum e is the same reaction as spectrum d with the exception that no GSH is used.
The EPR spectrum generated in the presence of 2 μM fenoterol (FIG. 3, section B, spectrum a) is approximately a two-fold more intense than that observed in the presence of 80 μM salbutamol (FIG. 3, section A, spectrum b). This confirms the higher reactivity of a metabolite(s) derived from fenoterol. […] The higher stimulatory action of fenoterol, when compared to that of salbutamol, implies that the compound's resorcinol moiety may play a dominating role in the interaction with GSH. The proposed cycle of redox reactions involving fenoterol, AscH^− and GSH is depicted in reaction B, presented earlier.

Where a name gives a salt, the structure may show the parent alone.

T1 sequence (P05164 279-745 limits assumed): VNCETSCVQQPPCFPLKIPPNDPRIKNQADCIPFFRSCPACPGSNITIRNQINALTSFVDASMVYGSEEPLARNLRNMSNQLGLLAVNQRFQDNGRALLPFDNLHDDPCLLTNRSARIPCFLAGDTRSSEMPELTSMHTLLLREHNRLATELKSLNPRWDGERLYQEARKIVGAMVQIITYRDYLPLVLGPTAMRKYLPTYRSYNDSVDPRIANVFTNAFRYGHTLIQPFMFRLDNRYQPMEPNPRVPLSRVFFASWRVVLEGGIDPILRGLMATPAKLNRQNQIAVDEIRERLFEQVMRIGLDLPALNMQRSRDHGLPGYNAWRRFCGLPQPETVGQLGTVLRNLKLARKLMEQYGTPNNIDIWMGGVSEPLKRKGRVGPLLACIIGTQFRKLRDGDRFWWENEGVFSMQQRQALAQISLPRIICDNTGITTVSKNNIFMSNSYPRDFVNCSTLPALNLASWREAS
T1 sequence (P05164 165-273 limits assumed): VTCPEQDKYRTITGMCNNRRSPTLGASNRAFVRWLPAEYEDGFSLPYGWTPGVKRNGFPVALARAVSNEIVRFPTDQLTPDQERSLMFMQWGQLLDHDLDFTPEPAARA

Take `O=C1O[C@H]([C@@H](O)CO)C(O)=C1O` [AscH^−, ascorbic acid]: the “Oxidation of fenoterol by MPO/H2O2 (A315 versus time)” value in series [1] (200 μM fenoterol) is on record as “completely inhibited”. Besides, the “Oxidation of salbutamol by MPO/H2O2 (A315 versus time)” value in series [1] (1 mM salbutamol) is given as “completely inhibited”. Moreover, the “Nitration of salbutamol by LPO/H2O2/NO2− (A410 versus time)” value is recorded as “only transiently inhibits” in series [2] (AscH− at near physiological concentrations (55, 88, 109 μM)) and “completely prevents” in series [2] (ascorbate ˜1 mM).

For the compound Salbutamol hemisulfate, the “Salbutamol transformation in vivo (nitrophenol of m/z 255.13 in breath condensate)” value in series [3] is “undergoes oxidation and nitration”. Moreover, the entries for the “EPR spectrum of ascorbate radical, more intense than with MPO/H2O2 alone” value in series [4] (40 μM salbutamol) and in series [4] (100 μM salbutamol) were “approximately 76%” and ~117%, respectively. Also, the EC50 (as a rule, the midpoint of the concentration-response curve) in series [5] was 24.8 nM.

`CC(Cc1ccc(O)cc1)NCC(O)c1cc(O)cc(O)c1` (stereo not shown) [fenoterol, fenoterol hydrobromide]: the “EPR spectrum of DMPO/SG adduct, intensity relative to 80 μM salbutamol” value in series [6] is reported as “two-fold”. Moreover, in series [4] (20 μM fenoterol), the “EPR spectrum of ascorbate radical, more intense than with MPO/H2O2 alone” value is 270%.
